Experimental data reported in paper PMC3638593, “1,4-dihydroxy-2-naphthoic Acid Induces Apoptosis in Human Keratinocyte: Potential Application for Psoriasis Treatment” (Evidence-based Complementary and Alternative Medicine : eCAM, 2013).
Values joined by “and” are separate entries in the source; they are usually repeats but may differ in a detail not shown here. Equal entries are not always repeated.

Columns and labels:
Assay type in all cases: cell-based, human
PIG1 cells = test: Proliferation/cytotoxicity assay (sulphorhodamine B) on PIG1 melanocyte; details: PIG1, compared with dithranol
[1] = as above; details: human, PIG1 immortalized epidermal melanocyte cells; PIG1 melanocyte, incubation 72 h; read-out: IC50 on growth (cytotoxic effect)
[2] = Proliferation/cytotoxicity assay (sulphorhodamine B) on Hs-68 fibroblast; details: human, Hs-68 foreskin fibroblast cells; Hs-68 fibroblast, incubation 72 h; read-out: IC50 on growth (cytotoxic effect)
Hs-68 cells = test: as above; details: Hs-68, compared with dithranol

| SMILES | less cytotoxicity on melanocytes than dithranol (PIG1 cells) | IC50 at 72 h [1] | IC50 at 72 h [2] | less cytotoxicity on fibroblasts than dithranol (Hs-68 cells) |
| --- | --- | --- | --- | --- |
| O=C(O)c1cc(O)c2ccccc2c1O [DHNA, 1,4-dihydroxy-2-naphthoic acid] | ~ 10 times | 24 µM and 4.9 µg/mL | 226 µM and 46.2 µg/mL | ~ 8 times |
| O=C1c2c(O)cccc2Cc2cccc(O)c21 [Dithranol, dithranol, reference compound] |  | 2.34 µM and 0.53 µg/mL | 27.4 µM and 6.2 µg/mL |  |
